Measurements taken from patent US12264134B2 (Merck Sharp & Dohme LLC, priority 2018, dated 2025).

Each compound was assayed against IDO1 (Homo sapiens, UniProt P14902) (assay: IDO1 Cellular Assay in HeLa Cells Stimulated with IFNγ). Settings: read-out: HeLa Cell Potency, IC50.
Assay type: cell-based
Experimental: IDO1 Cellular Assay in HeLa Cells Stimulated with IFNγ
HeLa cells were cultured in complete HeLa culture medium (90% EMEM, 10% heat-inactivated fetal bovine serum) and expanded to about 1×10^9 cells. The cells were then collected and frozen down at 1×10^7 cells/vial in 1 mL frozen medium (90% complete HeLa culture medium, 10% DMSO).
Compounds to be tested were serially diluted in ten 3-fold steps in DMSO starting from 10 mM DMSO stocks in Echo low volume plate(s). Compound dilutions or DMSO alone were then dispensed from the dilution plate(s) into Greiner black 384-well assay plate(s) (catalog #781086, 50 nL/well) using an Echo 550 acoustic liquid handler (Labcyte).
Frozen HeLa cells were thawed and transferred into HeLa assay medium (99% complete HeLa culture medium, 1% Pen/Strep) with 20 mL medium/vial of cells. The cells were spun down at 250 g in a table top centrifuge for 5 min and suspended in same volume of HeLa assay medium. The cells were then counted and adjusted to a density of 2×10^5 cells/mL in HeLa assay medium. Sterile L-tryptophan were added to the cells with final concentration of 300 uM L-tryptophan. A small aliquot (2 mL/plate) of HeLa cells were set aside and were not treated with IFNγ, to serve as the Max-E control.
HeLa cells with and without IFNγ were dispensed to the respective wells of 384-well assay plates containing the compounds. The plates were incubated for about 48 hours at a 37° C., 5% CO2 incubator. Afterwards, 12 μL of 0.5 M methyl isonipecotate in dimethyl sulfoxide were added into each well and the plates were sealed and incubated at 37° C. without CO2 overnight. The plates were centrifuged for 1 min at 200×g. The resulting fluorescence was measured in a Spectramax plate reader (Molecular Devices) with a 400 nm excitation filter and a 510 nm emission filter.
The fluorescence intensity of each well was corrected for the background observed in wells with non-IFNγ-treated cells and was expressed as a fraction of the intensity observed in wells of IFNγ-treated cells and DMSO only. Potencies were calculated by linear least squares fit to the four parameter logistic IC50 equation.

IDO1, sequence (P14902 whole entry): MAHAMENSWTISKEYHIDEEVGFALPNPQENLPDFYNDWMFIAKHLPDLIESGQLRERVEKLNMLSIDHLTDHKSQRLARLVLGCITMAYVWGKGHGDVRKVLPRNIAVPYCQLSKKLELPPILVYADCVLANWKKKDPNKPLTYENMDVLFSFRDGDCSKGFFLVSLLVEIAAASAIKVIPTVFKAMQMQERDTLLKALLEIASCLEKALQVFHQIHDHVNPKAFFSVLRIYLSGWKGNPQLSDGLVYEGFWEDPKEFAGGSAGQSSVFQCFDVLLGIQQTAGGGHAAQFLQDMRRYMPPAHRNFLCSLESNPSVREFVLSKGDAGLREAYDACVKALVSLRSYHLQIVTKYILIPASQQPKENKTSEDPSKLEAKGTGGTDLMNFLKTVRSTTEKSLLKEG

SMILES	IC50 [nM]
Cc1c(Cl)cccc1N1CCN(C(=O)Cn2nc(C(=O)N3CC[C@H](O)[C@@H](F)C3)c3c2CCCC3)CC1 [Example 404, 1-(4-(3-chloro-2-methylphenyl)piperazin-1-yl)-2-(3-((3S,4S)-3-fluoro-4-hydroxypiperidine-1-carbonyl)-4,5,6,7-tetrahydro-1H-indazol-1-yl)ethanone]	1.06
CCc1ccccc1N1CCN(C(=O)Cn2nc(C(=O)N3C[C@@H](C)O[C@@H](C)C3)c3c2CCC3)CC1 [Example 72, 2-{3-[(2R,6S)-2,6-dimethylmorpholine-4-carbonyl]-5,6-dihydrocyclopenta[c]pyrazol-1(4H)-yl}-1-[4-(2-ethylphenyl)piperazin-1-yl]ethan-1-one]	125
Cc1cccc(N2CCN(C(=O)Cn3nc(C(=O)N4CC[C@H](O)[C@H](C)C4)c4c3CCC4)CC2)c1C [Example 99, 1-[4-(2,3-dimethylphenyl)piperazin-1-yl]-2-{3-[(3R,4S)-4-hydroxy-3-methylpiperidine-1-carbonyl]-5,6-dihydrocyclopenta[c]pyrazol-1(4H)-yl}ethan-1-one]	3.19
Cc1ccccc1N1CCN(C(=O)Cn2nc(C(=O)N3C[C@@H](C)O[C@@H](C)C3)c3c2CCC3)CC1 [Example 487, 2-(3-((2S,6R)-2,6-dimethylmorpholine-4-carbonyl)-5,6-dihydro-cyclopenta[c]pyrazol-1(4H)-yl)-1-(4-(o-tolyl)piperazin-1-yl)ethanone,]	51.4
COc1c(F)cccc1N1CCN(C(=O)Cn2nc(C(=O)N3C[C@@H](C)O[C@@H](C)C3)c3c2CCC3)CC1 [Example 65, 2-{3-[(2R,6S)-2,6-dimethylmorpholine-4-carbonyl]-5,6-dihydrocyclopenta[c]pyrazol-1(4H)-yl}-1-[4-(3-fluoro-2-methoxyphenyl)piperazin-1-yl]ethan-1-one]	145
Cc1cccc(N2CCN(C(=O)Cn3nc(C(=O)N4CC5CCC4CC5)c4c3CCC4)CC2)c1C [Example 116, 2-[3-(2-azabicyclo[2.2.2]octane-2-carbonyl)-5,6-dihydrocyclopenta[c]pyrazol-1(4H)-yl]-1-[4-(2,3-dimethylphenyl)piperazin-1-yl]ethan-1-one]	11.6
Cc1cccc(N2CCN(C(=O)Cn3nc(C(=O)N4CC[C@@H](O)[C@@H](F)C4)c4c3CCC4)CC2)c1C [Example 98, 1-[4-(2,3-dimethylphenyl)piperazin-1-yl]-2-{3-[(3S,4R)-3-fluoro-4-hydroxypiperidine-1-carbonyl]-5,6-dihydrocyclopenta[c]pyrazol-1(4H)-yl}ethan-1-one]	12.4
Cc1cccc(N2CCN(C(=O)Cn3nc(C(=O)N4CCC(O)CC4)c4c3CCCCC4)CC2)c1C [Example 409, 1-(4-(2,3-dimethylphenyl)piperazin-1-yl)-2-(3-(4-hydroxypiperidine-1-carbonyl)-5,6,7,8-tetrahydrocyclohepta[c]pyrazol-1(4H)-yl)ethan-1-one]	2.63
Cc1cccc(N2CCN(C(=O)Cn3nc(C(=O)N4CCN(C(=O)CO)CC4)c4c3CC3CC43)CC2)c1C (stereo not drawn) [Example 287, 1-[4-(2,3-dimethylphenyl)piperazin-1-yl]-2-{3-[4-(hydroxyacetyl)piperazine-1-carbonyl]-3b,4,4a,5-tetrahydro-1H-cyclopropa[3,4]cyclopenta[1,2-c]pyrazol-1-yl}ethan-1-one]	1.64
Cc1cccc(N2CCN(C(=O)Cn3nc(C(=O)N4CCCCC45CC5)c4c3C[C@H]3C[C@@H]43)CC2)c1C [Example 215, 2-[(3bR,4aSR)-3-(4-azaspiro[2.5]octane-4-carbonyl)-3b,4,4a,5-tetrahydro-1H-cyclopropa[3,4]cyclopenta[1,2-c]pyrazol-1-yl]-1-[4-(2,3-dimethylphenyl)piperazin-1-yl]ethan-1-one]	1.38
Cc1cccc(N2CCN(C(=O)Cn3nc(C(=O)N4CC[C@@H](CO)C4)c4c3C[C@H]3C[C@@H]43)CC2)c1C [Example 252, 1-[4-(2,3-dimethylphenyl)piperazin-1-yl]-2-{(3bR,4aR)-3-[(3R)-3-(hydroxymethyl)pyrrolidine-1-carbonyl]-3b,4,4a,5-tetrahydro-1H-cyclopropa[3,4]cyclopenta[1,2-c]pyrazol-1-yl}ethan-1-one]	1.5
Cc1c(N2CCN(C(=O)Cn3nc(C(=O)N4CCN(C(=O)CO)CC4)c4c3C[C@H]3C[C@@H]43)CC2)cccc1C(F)(F)F [Example 337, 2-hydroxy-1-(4-((3bR,4aR)-1-(2-(4-(2-methyl-3-(trifluoromethyl)phenyl)piperazin-1-yl)-2-oxoethyl)-3b,4,4a,5-tetrahydro-1H-cyclopropa [3,4]cyclopenta[1,2-c]pyrazole-3-carbonyl)piperazin-1-yl)ethanone]	2.85
Cc1cccc(N2CCN(C(=O)Cn3nc(C(=O)N4CCC5(CC4)COCC5O)c4c3CCC4)CC2)c1C (stereo not drawn) [Example 114, 1-[4-(2,3-dimethylphenyl)piperazin-1-yl]-2-[3-(4-hydroxy-2-oxa-8-azaspiro[4.5]decane-8-carbonyl)-5,6-dihydrocyclopenta[c]pyrazol-1(4H)-yl]ethan-1-one]	6.33
Cc1cccc(N2CCN(C(=O)Cn3nc(C(=O)N4CCC(O)CC4)c4c3C[C@H]3C[C@@H]43)C(C(F)F)C2)c1C (single isomer, unassigned) [Example 386]	14
Cc1cccc(N2CCN(C(=O)Cn3nc(C(=O)N4CCN5CCCC[C@H]5C4)c4c3CCC4)CC2)c1C [Example 191, 1-[4-(2,3-dimethylphenyl)piperazin-1-yl]-2-{3-[(9aS)-octahydro-2H-pyrido[1,2-a]pyrazine-2-carbonyl]-5,6-dihydrocyclopenta[c]pyrazol-1(4H)-yl}ethan-1-one]	2.92
Cc1cccc(N2CCN(C(=O)Cn3nc(C(=O)N4CCC5(C4)CC5(F)F)c4c3CCC4)CC2)c1C (stereo not drawn) [Example 171, 2-[3-(1,1-difluoro-5-azaspiro[2.4]heptane-5-carbonyl)-5,6-dihydrocyclopenta[c]pyrazol-1(4H)-yl]-1-[4-(2,3-dimethylphenyl)piperazin-1-yl]ethan-1-one]	5.79
Cc1cccc(N2CCN(C(=O)Cn3nc(C(=O)N4CCO[C@H](CO)C4)c4c3CCCC4)CC2)c1C [Example 474, (S)-1-(4-(2,3-dimethylphenyl)piperazin-1-yl)-2-(3-(2-(hydroxymethyl)morpholine-4-carbonyl)-4,5,6,7-tetrahydro-1H-indazol-1-yl)ethanone]	4.21
Cc1c(Cl)cccc1N1CCN(C(=O)Cn2nc(C(=O)N3CC[C@@H](O)[C@@H](F)C3)c3c2CCC(F)C3)CC1 (stereo partly drawn) [Example 375, 1-(4-(3-chloro-2-methylphenyl)piperazin-1-yl)-2-(5-fluoro-3-((3S,4R)-3-fluoro-4-hydroxypiperidine-1-carbonyl)-4,5,6,7-tetrahydro-1H-indazol-1-yl)ethan-1-one]	9.03
C[C@@H]1CN(C(=O)c2nn(CC(=O)N3CCN(c4cc(F)c(F)cc4F)CC3)c3c2CCC3)C[C@H](C)O1 [Example 74, 2-{3-[(2R,6S)-2,6-dimethylmorpholine-4-carbonyl]-5,6-dihydrocyclopenta[c]pyrazol-1(4H)-yl}-1-[4-(2,4,5-trifluorophenyl)piperazin-1-yl]ethan-1-one]	289
C[C@@H]1CN(C(=O)c2nn(CC(=O)N3CCN(c4cc(F)cc(F)c4F)CC3)c3c2CCC3)C[C@H](C)O1 [Example 30, 2-{3-[(2R,6S)-2,6-dimethylmorpholine-4-carbonyl]-5,6-dihydrocyclopenta[c]pyrazol-1(4H)-yl}-1-[4-(2,3,5-trifluorophenyl)piperazin-1-yl]ethan-1-one]	474
O=C(Cn1nc(C(=O)N2CCC(O)(CF)CC2)c2c1CCC2)N1CCN(c2cccc3c(F)cccc23)CC1 [Example 444, 2-(3-(4-(fluoromethyl)-4-hydroxypiperidine-1-carbonyl)-5,6-dihydrocyclopenta[c]pyrazol-1(4H)-yl)-1-(4-(5-fluoronaphthalen-1-yl)piperazin-1-yl)ethan-1-one]	298
Cc1cccc(N2CCN(C(=O)Cn3nc(C(=O)N4CCN(C(=O)CO)CC4)c4c3C[C@H]3C[C@@H]43)C(C(F)F)C2)c1C (stereo partly drawn) [Example 390]	226
Cc1cccc(N2CCN(C(=O)Cn3nc(C(=O)N4CC[C@H](O)[C@@H](C)C4)c4c3C[C@H]3C[C@@H]43)CC2)c1C [Example 282, 1-[4-(2,3-dimethylphenyl)piperazin-1-yl]-2-{(3bR,4aR)-3-[(3S,4S)-4-hydroxy-3-methylpiperidine-1-carbonyl]-3b,4,4a,5-tetrahydro-1H-cyclopropa[3,4]cyclopenta[1,2-c]pyrazol-1-yl}ethan-1-one]	0.97
Cc1c(F)ccc(N2CCN(C(=O)Cn3nc(C(=O)N4CCC(F)(CO)CC4)c4c3CCCC4)CC2)c1C [Example 458, 1-(4-(4-fluoro-2,3-dimethylphenyl)piperazin-1-yl)-2-(3-(4-fluoro-4-(hydroxy-methyl)piperidine-1-carbonyl)-4,5,6,7-tetrahydro-1H-indazol-1-yl)ethanone]	0.95
